Laboratory results from US9199948B2, “1,3-benzoxazol-2(3H)-ones and their use as medicaments and cosmetics” (DR. AUGUST WOLFF GMBH & CO. KG ARZNEIMITTEL, priority 2012, dated 2015).

System: Arachidonoylethanolamide Transport (AEAT) in U937 cells
Assay: Cellular uptake of [3H]-AEA (inhibition of arachidonoylethanolamide transport, AEAT)
Format: cell-based
Conditions: Homo sapiens, U-937, 100 nM AEA, 15 min pre-incubation, 15 min uptake at 37° C.
Description: C. Cellular Uptake of [^3H]-AEA
Human lymphoma U937 cells were grown in RPMI 1640 medium (Invitrogen, Basel, Switzerland) supplemented with 10% fetal bovine serum, […] fungizone (amphotericin B), 100 units/ml penicillin, 100 µg/ml streptomycin, and 2 mM L-glutamine (all from Invitrogen) and selected for the cellular AEA uptake assay. 2.5×10^6 cells were collected and suspended in 250 μl of RPMI 1640 medium (Invitrogen, Basel, Switzerland) at 37° C. using glass silanized vials. Cells were pre-incubated 15 min at 37° C. in presence of test compounds in a concentration range of 10^−11−10^−5 M or in presence of the same amount (5 μl) of vehicle control (DMSO). Then a mixture of 0.5 nM [^3H]-AEA (60 Ci/mmol) (American Radiolabeled Chemicals, Inc., San Louis, Mo., US) and 99.5 nM of nonradioactive AEA (Tocris Cookson Ltd., Bristol, UK) resulting in a final concentration of 100 nM AEA was added and samples were incubated at 37° C. for another 15 minutes. […] Radioactivity was measured using a Perkin Elmer 1450 Microbeta TRILUX liquid scintillation counter. Results were expressed as % of AEA uptake versus cells treated with solvent and the EC50 and IC50 values were calculated from the sigmoidal curves, which were generated using the GraphPad Prism 5.0 (GraphPad Software, San Diego, Calif., US).

| EC50 | Compound |
| --- | --- |
| 146 nM | CCCCCCC/C=C/C=C/CNC(=O)c1ccc2oc(=O)[nH]c2c1 [Example 4] |
| 112 nM | Cn1c(=O)oc2ccc(NC(=O)/C=C/C=C/CCc3ccccc3)cc21 [Example 10] |
